Measured values as given in patent US20070191402A1, “Method of searching substrate having antidiabetic activity” (KYOWA HAKKO KOGYO CO., LTD., priority 2002, published 2007).

Legend:
[1] = tested on: pancreatic β cell (MIN6 cell); experiment: Inhibition of binding of [3H]-labeled Compound 16 to pancreatic β cell; design: species or system murine; details: test compound 1 μmol/l; 10 nmol/l [3H]-labeled Compound 16; MIN6 cell, 4° C.
Procedure: MIN6 cell cultured to almost confluence in a 24-well plate for cell culture (manufactured by Corning) was washed twice with KRH buffer (119 mmol/l NaCl, 4.74 mmol/KCl, 2.54 mmol/l calcium chloride (CaCl2), 1.19 mmol/l magnesium sulfate (MgSO4), 1.19 mmol/l potassium dihydrogen phosphate (KH2PO4), 10 mmol/l HEPES, 2 mmol/l glucose, 0.1 w/v % bovine serum albumin (BSA), pH 7.3). Subsequently, the KRH buffer was added at 1 ml per well, for preincubation at 37° C. for 45 minutes. After preincubation, the supernatant was discarded, and 0.15 ml of the KRH buffer, […] at 4° C. for one hour or longer until the reaction reached equilibrium. Subsequently, the cell was washed twice using the KRH buffer. The KRH buffer was added at 2 ml per well, which was then left to stand at room temperature for 20 minutes. The cell was again washed twice by using the KRH buffer. The radioactivity remaining in each well was counted with a liquid scintillation counter to determine the binding amount.
The difference between the binding amount of the [^3H]-labeled Compound 16 (total binding amount) under conditions with no addition of any test compound and the binding amount of the [^3H]-labeled Compound 16 (non-specific binding amount) under conditions in the presence of the Compound 16 at 10 μmol/l was defined as specific binding amount.
According to the method described in Example 5, a substance having anti-diabetic activity was screened for, using the inhibitory activity of the binding between pancreatic β cells and [^3H]-labeled Compound 16. A tested substance was dissolved in dimethylsulfoxide and then added to give a final concentration of 1 μmol/l. The radioactivity with addition of the unlabeled Compound 16 was defined as the non-specific binding amount and the radioactivity without addition of the unlabeled Compound 16 was defined as the total binding amount, and then the individual specific binding amounts were calculated by the method described in Example 6. Using the following formula, the binding inhibition ratio was determined. [formula]

p31 protein = target: T1, p31 protein (Mus musculus, UniProt Q99LB2); experiment: Inhibition of binding of p31 protein from MIN6 solubilized membrane fraction to Compound 155-immobilized particle (SDS-PAGE); details: 500 μmol/l tested substance, band on SDS-PAGE
T1 construct: endogenous in cells; host or cells: MIN6 (murine pancreatic beta cell line), digitonin-solubilized membrane fraction
T1 sequence (Q99LB2 20-279 limits assumed): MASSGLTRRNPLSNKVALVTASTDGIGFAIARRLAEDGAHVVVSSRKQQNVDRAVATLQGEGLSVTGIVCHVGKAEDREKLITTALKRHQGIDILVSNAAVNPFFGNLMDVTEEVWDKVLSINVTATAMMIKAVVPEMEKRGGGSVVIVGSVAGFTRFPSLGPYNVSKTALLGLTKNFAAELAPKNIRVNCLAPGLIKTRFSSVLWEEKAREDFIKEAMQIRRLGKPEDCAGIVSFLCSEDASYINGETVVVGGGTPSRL
Procedure: The solubilized membrane fraction of MIN6 as prepared in Example 12 was 10-fold diluted with the buffer B. The compound represented by Compound No. 16 (hereinafter referred to as “Compound 16”) at 500 μmol/l was added to 1 ml of the resulting dilution and gently stirred at 4° C. for 2 hours. As a control, the solubilized membrane fraction of MIN6 without addition of the Compound 16 was 10-fold diluted with buffer C [20 mmol/l HEPES, pH 7.4, 2 mmol/l EDTA, 150 mmol/l NaCl, 1% digitonin, 1 mmol/l PMSF, 1 μg/ml aprotinin], and 1 ml of the resulting dilution was gently stirred at 4° C. for 2 hours. Then, a particle immobilizing a compound represented by Compound No. 155 (hereinafter referred to as “Compound 155-immobilized particle”) as prepared in Example 8 was added to the solubilized membrane fraction solution with addition of the Compound 16 and the solubilized membrane fraction solution without addition of any tested substance and gently stirred at 4° C. for 30 minutes. Subsequently, the resulting solutions were centrifuged (12,000 rpm, one minute, 4° C.) to precipitate the particle to thereby remove the supernatants. Then, 750 μl of the buffer C was added and stirred for 3 seconds, followed by centrifugation (12,000 rpm, one minute, 4° C.), to precipitate the particle to remove the supernatant. Then, 750 μl of buffer D [20 mmol/l HEPES, pH 7.4, 2 mmol/l EDTA] was added and stirred for 3 seconds, followed by centrifugation (12,000 rpm, one minute, 4° C.), to precipitate the particle to remove the supernatant. Subsequently, 30 μl of an SDS-polyacrylamide gel electrophoresis sample buffer containing β-mercaptoethanol was added to solubilize the protein binding to Compound 155-immobilized particle, followed by SDS-polyacrylamide gel electrophoresis. Through the purification from the cell extract solution by adding Compound 16 via Compound 155-immobilized particle, p31 protein in which its specific binding to Compound 155-immobilized particle was inhibited by the compound represented by Compound No. 16 was found. […]

Structure (SMILES): CCCN1C(=O)N2C[C@@H](Cc3ccccc3)N=C2c2[nH]c(C3CCCC3)nc21 [compound 16]
- Binding inhibitory activity (%) [1]: 100.0%
- inhibition of the binding of the p31 protein to the Compound 155-immobilized particle (p31 protein): inhibits the binding of the p31 protein
- inhibition of the binding of the p31 protein to the Compound 155-immobilized particle (p31 protein; listed as Compound No. 16): inhibited
